Assay results from ChEMBL document CHEMBL3885881, “DrugMatrix”.

Species: Rattus norvegicus
Experiment: DrugMatrix - Regimen: Daily Repeat
Assay type: toxicity, organism-based, Sprague-Dawley
Parameters: regimen Daily Repeat, gender Male, age 6-8 weeks
Details: in vivo, po, route oral GAVAGE, vehicle .5 % CMC; for ABSOLUTE BASOPHIL / ABSOLUTE EOSINOPHIL / ABSOLUTE LYMPHOCYTE / ABSOLUTE MONOCYTE / ABSOLUTE SEGMENTED NEUTROPHIL / BASOPHIL / EOSINOPHIL / ERYTHROCYTE COUNT / HEMATOCRIT / HEMOGLOBIN / LEUKOCYTE COUNT / LYMPHOCYTE / MEAN CORPUSCULAR HEMOGLOBIN / MEAN CORPUSCULAR HEMOGLOBIN CONCENTRATION / MEAN CORPUSCULAR VOLUME / MONOCYTE / NEUTROPHIL / NUCLEATED RED BLOOD CELLS / PLATELET COUNT: tissue Blood; for ALANINE AMINOTRANSFERASE / ALBUMIN / ALKALINE PHOSPHATASE / ASPARTATE AMINOTRANSFERASE / BLOOD UREA NITROGEN / CARBON DIOXIDE / CHLORIDE / CHOLESTEROL / CREATINE PHOSPHOKINASE / CREATININE / GLUCOSE / LACTATE DEHYDROGENASE / LIPASE / PHOSPHORUS / SODIUM / TOTAL BILIRUBIN / TOTAL PROTEIN / URIC ACID: tissue Plasma
[1] = 20 mg/kg, 72 h, dose level Low, time 3 day
[2] = 20 mg/kg, 120 h, dose level Low, time 5 day
[3] = 2000 mg/kg, 72 h, dose level High, time 3 day
[4] = 2000 mg/kg, 120 h, dose level High, time 5 day

`NCCCC[C@H](N[C@@H](CCc1ccccc1)C(=O)O)C(=O)N1CCC[C@H]1C(=O)O` [LISINOPRIL ANHYDROUS] was tested, and the “ABSOLUTE BASOPHIL” value [1] was 0 CELLS/uL, the “ABSOLUTE EOSINOPHIL” value [1] was 69 CELLS/uL and the “ABSOLUTE LYMPHOCYTE” value [1] was 9482.67 CELLS/uL. The “ABSOLUTE MONOCYTE” value [1] was 143.67 CELLS/uL, the “ABSOLUTE SEGMENTED NEUTROPHIL” value [1] was 904.67 CELLS/uL and the BASOPHIL [1] was 0%. The EOSINOPHIL [1] was 0.67%, the “ERYTHROCYTE COUNT” value [1] was 5.65 x10E6/uL and the HEMATOCRIT [1] was 34.1%. For the same molecule, the HEMOGLOBIN [1] was 13.3 G/DL, the “LEUKOCYTE COUNT” value [1] was 10.6 x10E3/uL and the LYMPHOCYTE [1] was 89.33%. The “MEAN CORPUSCULAR HEMOGLOBIN” value [1] was 23.63 pg, the “MEAN CORPUSCULAR HEMOGLOBIN CONCENTRATION” value [1] was 39 G/DL and the “MEAN CORPUSCULAR VOLUME” value [1] was 60.5 fL. The MONOCYTE [1] was 1.33%, the NEUTROPHIL [1] was 8.67% and the “NUCLEATED RED BLOOD CELLS” value [1] was 0 /100WBC. The “PLATELET COUNT” value [1] was 1392 x10E3/uL, the “ALANINE AMINOTRANSFERASE” value [1] was 44 u/L and the ALBUMIN [1] was 4.1 G/DL. For the same molecule, the “ALKALINE PHOSPHATASE” value [1] was 387 u/L, the “ASPARTATE AMINOTRANSFERASE” value [1] was 70 u/L and the “BLOOD UREA NITROGEN” value [1] was 22.67 mg/dL. The “CARBON DIOXIDE” value [1] was 23.33 mmol/L, the CHLORIDE [1] was 101 MEQ/L and the CHOLESTEROL [1] was 80.33 mg/dL. For the same molecule, the “CREATINE PHOSPHOKINASE” value [1] was 236.67 u/L, the CREATININE [1] was 0.18 mg/dL and the GLUCOSE [1] was 166 mg/dL. For the same molecule, the “LACTATE DEHYDROGENASE” value [1] was 94.33 u/L, the LIPASE [1] was 10 u/L and the PHOSPHORUS [1] was 11.87 mg/dL. The SODIUM [1] was 140.73 MEQ/L, the “TOTAL BILIRUBIN” value [1] was 0.23 mg/dL and the “TOTAL PROTEIN” value [1] was 5.83 G/DL. For the same molecule, the “URIC ACID” value [1] was 2.13 mg/dL, the “ABSOLUTE BASOPHIL” value [2] was 0 CELLS/uL and the “ABSOLUTE EOSINOPHIL” value [2] was 0 CELLS/uL. For the same molecule, the “ABSOLUTE LYMPHOCYTE” value [2] was 11890.67 CELLS/uL, the “ABSOLUTE MONOCYTE” value [2] was 94.67 CELLS/uL and the “ABSOLUTE SEGMENTED NEUTROPHIL” value [2] was 1714.67 CELLS/uL. For the same molecule, the BASOPHIL [2] was 0%, the EOSINOPHIL [2] was 0% and the “ERYTHROCYTE COUNT” value [2] was 6.1 x10E6/uL. The HEMATOCRIT [2] was 36.67%, the HEMOGLOBIN [2] was 14.77 G/DL and the “LEUKOCYTE COUNT” value [2] was 13.7 x10E3/uL. The LYMPHOCYTE [2] was 87%, the “MEAN CORPUSCULAR HEMOGLOBIN” value [2] was 24.23 pg and the “MEAN CORPUSCULAR HEMOGLOBIN CONCENTRATION” value [2] was 40.3 G/DL. For the same molecule, the “MEAN CORPUSCULAR VOLUME” value [2] was 60.07 fL, the MONOCYTE [2] was 0.67% and the NEUTROPHIL [2] was 12.33%. The “NUCLEATED RED BLOOD CELLS” value [2] was 0 /100WBC, the “PLATELET COUNT” value [2] was 1320.33 x10E3/uL and the “ALANINE AMINOTRANSFERASE” value [2] was 51.33 u/L. The ALBUMIN [2] was 4.53 G/DL, the “ALKALINE PHOSPHATASE” value [2] was 401 u/L and the “ASPARTATE AMINOTRANSFERASE” value [2] was 81.67 u/L. For the same molecule, the “BLOOD UREA NITROGEN” value [2] was 22.33 mg/dL, the “CARBON DIOXIDE” value [2] was 27.67 mmol/L and the CHLORIDE [2] was 96.33 MEQ/L. For the same molecule, the CHOLESTEROL [2] was 70.67 mg/dL, the “CREATINE PHOSPHOKINASE” value [2] was 297.33 u/L and the CREATININE [2] was 0.22 mg/dL. For the same molecule, the GLUCOSE [2] was 158 mg/dL, the “LACTATE DEHYDROGENASE” value [2] was 249 u/L and the LIPASE [2] was 9.67 u/L. For the same molecule, the PHOSPHORUS [2] was 11.77 mg/dL, the SODIUM [2] was 139.17 MEQ/L and the “TOTAL BILIRUBIN” value [2] was 0.17 mg/dL. The “URIC ACID” value [2] was 2 mg/dL, the “ABSOLUTE BASOPHIL” value [3] was 0 CELLS/uL and the “ABSOLUTE EOSINOPHIL” value [3] was 42.33 CELLS/uL. For the same molecule, the “ABSOLUTE LYMPHOCYTE” value [3] was 11490 CELLS/uL, the “ABSOLUTE MONOCYTE” value [3] was 124.67 CELLS/uL and the “ABSOLUTE SEGMENTED NEUTROPHIL” value [3] was 1076.33 CELLS/uL. For the same molecule, the BASOPHIL [3] was 0%, the EOSINOPHIL [3] was 0.33% and the “ERYTHROCYTE COUNT” value [3] was 5.63 x10E6/uL. The HEMATOCRIT [3] was 33.57%, the HEMOGLOBIN [3] was 13.17 G/DL and the “LEUKOCYTE COUNT” value [3] was 12.73 x10E3/uL. The LYMPHOCYTE [3] was 90%, the “MEAN CORPUSCULAR HEMOGLOBIN” value [3] was 23.43 pg and the “MEAN CORPUSCULAR HEMOGLOBIN CONCENTRATION” value [3] was 39.27 G/DL. For the same molecule, the “MEAN CORPUSCULAR VOLUME” value [3] was 59.63 fL, the MONOCYTE [3] was 1% and the NEUTROPHIL [3] was 8.67%. The “NUCLEATED RED BLOOD CELLS” value [3] was 0 /100WBC, the “PLATELET COUNT” value [3] was 1324.33 x10E3/uL and the “ALANINE AMINOTRANSFERASE” value [3] was 40.33 u/L. For the same molecule, the ALBUMIN [3] was 4.03 G/DL, the “ALKALINE PHOSPHATASE” value [3] was 322.67 u/L and the “ASPARTATE AMINOTRANSFERASE” value [3] was 68 u/L. For the same molecule, the “BLOOD UREA NITROGEN” value [3] was 26.67 mg/dL, the “CARBON DIOXIDE” value [3] was 24.67 mmol/L and the CHLORIDE [3] was 101.33 MEQ/L. The CHOLESTEROL [3] was 71.67 mg/dL, the “CREATINE PHOSPHOKINASE” value [3] was 262 u/L and the CREATININE [3] was 0.29 mg/dL. The GLUCOSE [3] was 155 mg/dL, the “LACTATE DEHYDROGENASE” value [3] was 122.67 u/L and the LIPASE [3] was 9.67 u/L. The PHOSPHORUS [3] was 11.5 mg/dL, the SODIUM [3] was 141.1 MEQ/L and the “TOTAL BILIRUBIN” value [3] was 0.13 mg/dL. The “TOTAL PROTEIN” value [3] was 5.77 G/DL, the “URIC ACID” value [3] was 1.53 mg/dL and the “ABSOLUTE BASOPHIL” value [4] was 0 CELLS/uL. The “ABSOLUTE EOSINOPHIL” value [4] was 43.33 CELLS/uL, the “ABSOLUTE LYMPHOCYTE” value [4] was 10946.67 CELLS/uL and the “ABSOLUTE MONOCYTE” value [4] was 86.67 CELLS/uL. For the same molecule, the “ABSOLUTE SEGMENTED NEUTROPHIL” value [4] was 1123.33 CELLS/uL, the BASOPHIL [4] was 0% and the EOSINOPHIL [4] was 0.33%. The “ERYTHROCYTE COUNT” value [4] was 5.62 x10E6/uL, the HEMATOCRIT [4] was 34.17% and the HEMOGLOBIN [4] was 13.67 G/DL. The “LEUKOCYTE COUNT” value [4] was 12.2 x10E3/uL, the LYMPHOCYTE [4] was 89.67% and the “MEAN CORPUSCULAR HEMOGLOBIN” value [4] was 24.37 pg. The “MEAN CORPUSCULAR HEMOGLOBIN CONCENTRATION” value [4] was 40 G/DL, the “MEAN CORPUSCULAR VOLUME” value [4] was 60.8 fL and the MONOCYTE [4] was 0.67%. The NEUTROPHIL [4] was 9.33%, the “NUCLEATED RED BLOOD CELLS” value [4] was 0 /100WBC and the “PLATELET COUNT” value [4] was 1374 x10E3/uL. The “ALANINE AMINOTRANSFERASE” value [4] was 43.33 u/L, the ALBUMIN [4] was 4.17 G/DL and the “ALKALINE PHOSPHATASE” value [4] was 336.33 u/L. For the same molecule, the “ASPARTATE AMINOTRANSFERASE” value [4] was 74 u/L, the “BLOOD UREA NITROGEN” value [4] was 29.67 mg/dL and the “CARBON DIOXIDE” value [4] was 22.67 mmol/L. For the same molecule, the CHLORIDE [4] was 103 MEQ/L, the CHOLESTEROL [4] was 72 mg/dL and the “CREATINE PHOSPHOKINASE” value [4] was 214 u/L. For the same molecule, the CREATININE [4] was 0.25 mg/dL, the GLUCOSE [4] was 167.67 mg/dL and the “LACTATE DEHYDROGENASE” value [4] was 146.33 u/L. The LIPASE [4] was 9.67 u/L, the PHOSPHORUS [4] was 10.97 mg/dL and the SODIUM [4] was 141.47 MEQ/L. For the same molecule, the “TOTAL BILIRUBIN” value [4] was 0.13 mg/dL, the “TOTAL PROTEIN” value [4] was 5.97 G/DL and the “URIC ACID” value [4] was 1.9 mg/dL.
